This is an account of results in publication PMC2677997 (Bioorganic & medicinal chemistry, 2009).

Molecules are shown by their SMILES.

The target of this experiment is BoNT/A LC (BoNTA-LC 1-425) (Clostridium botulinum, UniProt P0DPI0). The experiment is classed as biochemical.
Sequence of BoNT/A LC (BoNTA-LC 1-425) (P0DPI0 1-425 limits assumed): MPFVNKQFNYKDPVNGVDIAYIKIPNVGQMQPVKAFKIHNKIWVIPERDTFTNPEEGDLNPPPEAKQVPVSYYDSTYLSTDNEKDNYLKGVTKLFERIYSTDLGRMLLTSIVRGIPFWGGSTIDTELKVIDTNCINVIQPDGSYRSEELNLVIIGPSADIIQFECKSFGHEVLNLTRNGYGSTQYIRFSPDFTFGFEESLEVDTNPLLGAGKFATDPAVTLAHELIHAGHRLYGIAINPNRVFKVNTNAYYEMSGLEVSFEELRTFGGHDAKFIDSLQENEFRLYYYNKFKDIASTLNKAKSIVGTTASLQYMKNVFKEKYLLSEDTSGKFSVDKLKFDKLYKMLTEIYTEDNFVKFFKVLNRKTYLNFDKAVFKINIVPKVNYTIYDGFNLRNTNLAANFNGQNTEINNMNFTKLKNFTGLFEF

Regarding `O=C(CO)Nc1cc(-c2ccc(Cl)cc2)n[nH]1` [Compound 6, N-(3-(4-Chlorophenyl)-1H-pyrazol-5-yl)-2-hydroxyacetamide], the “inhibitory activity” value is reported as “abolishes all activity”.

For `CC(=O)Nc1cc(-c2ccc(Cl)cc2)n[nH]1` [Compound 7, N-(3-(4-Chlorophenyl)-1H-pyrazol-5-yl)acetamide], the “inhibitory activity” value is given as “abolishes all activity”.
